# Assay results published in PMC10064984, “Anti-cyclooxygenase, anti-glycation, and anti-skin aging effect of Dendrobium officinale flowers’ aqueous extract and its phytochemical validation in aging” (Frontiers in Immunology, 2023).
# Several values for one entry are separate records, joined by “and”; a condition that tells them apart may be missing. Equal values may be shown once.
# Columns and labels:
# Format in all cases: biochemical
# [1] = Fluorescent AGEs formation in a BSA-fructose/glucose system; conditions: for inhibition of fluorescent AGEs formation (BSA-抗糖化), 平均 (mean): mean of 3
# Experimental: Glycated protein was prepared in vitro by incubating BSA in the presence of D-glucose (GLC) and D-fructose (FRC). The DOF extract and specific standards were dissolved in DMSO:water (1:4). […] The assay was performed in triplicate, and AG was used as a positive control. The percentage inhibition of fluorescent AGE formation was calculated using the following equation: […] Where IF sample is fluorescence intensity in the presence of samples and BSA, IF sample control is fluorescence intensity in the presence of samples without BSA, IF control is fluorescence intensity without samples, and IF blank control is fluorescence intensity without samples and BSA.
# [2] = ABTS·+ decolourisation capacity
# Experimental: Fast colourimetric methods were slightly modified for the in vitro assessment of DPPH· scavenging ([19]), ABTS·+ decolourisation capacity ([20]), and total antioxidant capacity of FRAP ([21]). The stock solutions of derivatisation reagents were diluted as follows before measurement: DPPH was diluted with absolute ethanol until the absorbance was 0.8 ± 0.05 at λ = 517 nm. ABTS working solution was prepared with phosphate buffer (0.2 M, pH 7.4) to display absorbance of 0.8 ± 0.05 at λ = 729 nm, based on a previous study ([22]). The FRAP solution was prepared according to the instructions of the FRAP kit. Absorbances were measured using an automatic microplate reader (Molecular Group Ltd., USA), and all analyses were performed using 96-well plates. All measurements were performed in triplicate, and Trolox was used as a positive control.
# For ABTS·+ decolourisation capacity, 100 μl of ABTS working solution was mixed with 200 μl of sample solution, and the absorbance was recorded after 10 min at 729 nm. Phosphate buffer (0.2 M, pH 7.4) was used as a negative control.
# DPPH· and ABTS·+ radical scavenging activities of the tested sample were both calculated using the following formula:
# % inhibition = (A control − A sample)/A control × 100
# Where A control and A sample represent the absorbance of the control and test samples, respectively. The IC50 was calculated graphically from the dose-inhibition curves.
# DPPH· scavenging = assay: DPPH· scavenging;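 note: colourimetric DPPH radical scavenging in 96-well plates, absorbance read-out, percent inhibition relative to ethanol control absorbance, IC50 derived graphically from dose-inhibition curves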
# [3] = FRAP total antioxidant capacity; conditions: for 标准曲线对应浓度 mM FeSO4 (FRAP, FeSO4 equivalent from standard curve): individual replicates; for 标准曲线对应浓度 mM FeSO4, mean: mean of 3;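 for all read-outs here: colourimetric FRAP kit assay read as absorbance in 96-well plates, values as mM FeSO4 via standard curve, EC1 being sample concentration matching 1.0 mmol/L FeSO4, Trolox positive control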
# COX-2 = target: T1, COX-2 (Homo sapiens, UniProt P35354); assay: Anti-COX-2 assay (COX-2 Inhibitor Screening Kit); conditions: single replicates
# T1 construct: purchased Beyotime S0168
# T1 sequence (P35354 18-604): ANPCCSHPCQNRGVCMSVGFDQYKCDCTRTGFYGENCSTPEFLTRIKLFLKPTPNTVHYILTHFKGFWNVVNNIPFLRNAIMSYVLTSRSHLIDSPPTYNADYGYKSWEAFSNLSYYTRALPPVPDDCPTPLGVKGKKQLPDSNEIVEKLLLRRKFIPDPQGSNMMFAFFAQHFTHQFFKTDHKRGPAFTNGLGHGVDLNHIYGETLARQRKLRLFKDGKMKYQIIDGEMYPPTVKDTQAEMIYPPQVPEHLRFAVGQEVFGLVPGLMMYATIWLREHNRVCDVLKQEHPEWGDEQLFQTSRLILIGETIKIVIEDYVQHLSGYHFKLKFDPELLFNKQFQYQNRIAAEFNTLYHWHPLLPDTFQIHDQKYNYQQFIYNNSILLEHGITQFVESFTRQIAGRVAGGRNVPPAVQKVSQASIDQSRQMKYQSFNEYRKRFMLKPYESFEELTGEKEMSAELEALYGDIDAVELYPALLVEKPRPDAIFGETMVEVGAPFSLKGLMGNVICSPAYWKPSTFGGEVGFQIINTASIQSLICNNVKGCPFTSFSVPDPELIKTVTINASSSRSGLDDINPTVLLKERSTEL
# [4] = upper part of sheet (extract series), positive control also given in μM
# [5] = lower part of sheet (compound series)
compound,measurement,setting,value
O=C(O)CC(=O)OC[C@H]1O[C@@H](Oc2c(-c3ccc(O)c(O)c3)oc3cc(O)cc(O)c3c2=O)[C@H](O)[C@@H](O)[C@@H]1O,"inhibition of fluorescent AGEs formation (BSA-抗糖化), single replicate",[1]; 15.625 µM,10.51% and 15.35% and 23.11%
same,"inhibition of fluorescent AGEs formation (BSA-抗糖化), single replicate",[1]; 31.25 µM,5.08% and 5.86% and 10.67%
same,"inhibition of fluorescent AGEs formation (BSA-抗糖化), 平均 (mean)",[1]; 31.25 µM,7.20%
same,"inhibition of fluorescent AGEs formation (BSA-抗糖化), single replicate",[1]; 62.5 µM,17.13% and 15.89% and 16.80%
same,"inhibition of fluorescent AGEs formation (BSA-抗糖化), 平均 (mean)",[1]; 62.5 µM,16.61%
same,"inhibition of fluorescent AGEs formation (BSA-抗糖化), single replicate",[1]; 125 µM,26.98% and 29.78% and 30.07%
same,"inhibition of fluorescent AGEs formation (BSA-抗糖化), 平均 (mean)",[1]; 125 µM,28.94%
same,"inhibition of fluorescent AGEs formation (BSA-抗糖化), single replicate",[1]; 250 µM,45.50% and 47.09% and 47.76%
same,"inhibition of fluorescent AGEs formation (BSA-抗糖化), 平均 (mean)",[1]; 250 µM,46.78%
same,"inhibition of fluorescent AGEs formation (BSA-抗糖化), single replicate",[1]; 500 µM,61.62% and 62.32% and 63.30%
same,"inhibition of fluorescent AGEs formation (BSA-抗糖化), 平均 (mean)",[1]; 500 µM,62.41%
same,"inhibition of fluorescent AGEs formation (BSA-抗糖化), single replicate",[1]; 1000 µM,77.56% and 77.94% and 77.85%
same,"inhibition of fluorescent AGEs formation (BSA-抗糖化), 平均 (mean)",[1]; 1000 µM,77.78%
same,"inhibition of fluorescent AGEs formation (BSA-抗糖化), single replicate",[1]; 2000 µM,88.53% and 88.63% and 88.83%
same,"inhibition of fluorescent AGEs formation (BSA-抗糖化), 平均 (mean)",[1]; 2000 µM,88.66%
same,"inhibition of fluorescent AGEs formation (BSA-抗糖化), single replicate",[1]; 4000 µM,94.35% and 94.74% and 94.79%
same,"inhibition of fluorescent AGEs formation (BSA-抗糖化), 平均 (mean)",[1]; 4000 µM,94.62%
same,IC50,"[1]; BSA-抗糖化, mean of 3 replicate IC50, read-out: IC50µM, mean",288 µM
same,IC50,"[1]; BSA-抗糖化, per replicate curve, read-out: IC50µM, single replicate",306 µM and 289 µM and 270 µM
"Cc1c(C)c2c(c(C)c1O)CCC(C)(C(=O)O)O2 (centres unmarked) [Trolox, 6-hydroxyl-2,5,7,8-tetra-methylchroman-2-carboxylic acid, reference compound]",ABTS scavenging rate,"[2]; 7.8125 ug/ml, single replicate wells",8.24% and 9.20% and 7.27%
same,ABTS scavenging rate,"[2]; 15.625 ug/ml, single replicate wells",16.72% and 19.40% and 19.88%
same,ABTS scavenging rate,"[2]; 31.25 ug/ml, single replicate wells",61.34% and 52.07% and 52.74%
same,ABTS scavenging rate,"[2]; 62.5 ug/ml, single replicate wells",94.28% and 95.58% and 92.94%
same,ABTS scavenging rate,"[2]; 125 ug/ml, single replicate wells",96.25% (2×) and 96.22%
same,ABTS scavenging rate,"[2]; 250 ug/ml, single replicate wells",96.32% and 96.28% and 96.27%
same,ABTS scavenging rate,"[2]; 0.5mM series, concentration 7.8125 (unit not given), replicate wells",5.05% and 4.88% and 5.29%
same,ABTS scavenging rate,"[2]; 0.5mM series, concentration 15.625 (unit not given), replicate wells",12.72% and 13.81% and 12.64%
same,ABTS scavenging rate,"[2]; 0.5mM series, concentration 31.25 (unit not given), replicate wells",31.58% and 33.31% and 33.45%
same,ABTS scavenging rate,"[2]; 0.5mM series, concentration 62.5 (unit not given), replicate wells",67.91% and 69.65% and 70.29%
same,ABTS scavenging rate,"[2]; 0.5mM series, concentration 125 (unit not given), replicate wells",99.61% and 99.52% and 99.85%
same,ABTS scavenging rate,"[2]; 0.5mM series, concentration 250 (unit not given), replicate wells",99.86% and 99.73% and 99.90%
same,ABTS scavenging rate,"[2]; 0.5mM series, concentration 500 (unit not given), replicate wells",99.85% and 99.75% and 99.73%
same,ABTS scavenging rate,"[2]; 500 ug/ml, single replicate wells",96.17% and 96.23% and 96.35%
same,IC50,"[2]; mean ± SD, n = 3",145.7 ± 1.22 µM
same,IC50,[2]; [4],111 µM
same,"DPPH scavenging (sheet ""DPPH""), single replicate",DPPH· scavenging; 15.625 ug/ml,32.84% and 29.98% and 33.39%
same,"DPPH scavenging (sheet ""DPPH""), single replicate",DPPH· scavenging; 31.25 ug/ml,58.95% and 55.65% and 57.84%
same,"DPPH scavenging (sheet ""DPPH""), single replicate",DPPH· scavenging; 62.5 ug/ml,84.01% and 87.99% and 89.81%
same,"DPPH scavenging (sheet ""DPPH""), single replicate",DPPH· scavenging; 125 ug/ml,89.42% and 88.80% and 89.64%
same,"DPPH scavenging (sheet ""DPPH""), single replicate",DPPH· scavenging; 250 ug/ml,88.55% and 89.46% and 90.81%
same,"DPPH scavenging (sheet ""DPPH""), single replicate",DPPH· scavenging; 500 ug/ml,93.00% and 92.15% and 93.91%
same,"DPPH scavenging (sheet ""DPPH""), single replicate",DPPH· scavenging; 1000 ug/ml,95.26% and 95.19% and 95.32%
same,IC50,"DPPH· scavenging; mean ± SD, n = 3",159 ± 4.47 µM
same,IC50,DPPH· scavenging; [4],98.8 µM
same,"标准曲线对应浓度 mM FeSO4 (FRAP, FeSO4 equivalent from standard curve)",[3]; 0.15 mM (37.5 μg/ml),0.9597 mM FeSO4 and 0.8823 mM FeSO4 and 0.8550 mM FeSO4
same,"标准曲线对应浓度 mM FeSO4, mean",[3]; 0.15 mM (37.5 μg/ml),0.8990 mM FeSO4
same,"标准曲线对应浓度 mM FeSO4 (FRAP, FeSO4 equivalent from standard curve)",[3]; 0.3 mM (75 μg/ml),1.6552 mM FeSO4 and 1.6329 mM FeSO4 and 1.5219 mM FeSO4
same,"标准曲线对应浓度 mM FeSO4, mean",[3]; 0.3 mM (75 μg/ml),1.6033 mM FeSO4
same,"标准曲线对应浓度 mM FeSO4 (FRAP, FeSO4 equivalent from standard curve)",[3]; 0.6 mM (150 μg/ml),3.1630 mM FeSO4 and 2.8987 mM FeSO4 and 2.7627 mM FeSO4
same,"标准曲线对应浓度 mM FeSO4, mean",[3]; 0.6 mM (150 μg/ml),2.9415 mM FeSO4
same,"标准曲线对应浓度 mM FeSO4 (FRAP, FeSO4 equivalent from standard curve)",[3]; 0.9 mM (225 μg/ml),4.4046 mM FeSO4 and 4.2357 mM FeSO4 and 4.0364 mM FeSO4
same,"标准曲线对应浓度 mM FeSO4, mean",[3]; 0.9 mM (225 μg/ml),4.2256 mM FeSO4
same,"标准曲线对应浓度 mM FeSO4 (FRAP, FeSO4 equivalent from standard curve)",[3]; 1.2 mM (300 μg/ml),5.8342 mM FeSO4 and 5.5270 mM FeSO4 and 5.3675 mM FeSO4
same,"标准曲线对应浓度 mM FeSO4, mean",[3]; 1.2 mM (300 μg/ml),5.5762 mM FeSO4
same,"标准曲线对应浓度 mM FeSO4 (FRAP, FeSO4 equivalent from standard curve)",[3]; 1.5 mM (375 μg/ml),6.9332 mM FeSO4 and 6.7909 mM FeSO4 and 6.4969 mM FeSO4
same,"标准曲线对应浓度 mM FeSO4, mean",[3]; 1.5 mM (375 μg/ml),6.7403 mM FeSO4
same,FRAP EC1,[3]; [5],559.8 ± 19.4 µM
same,FRAP EC1,"[3]; mean ± SD, n = 3",559.8 ± 19.4 µM
same,FRAP EC1,[3]; upper part of sheet (extract series),55.35 ± 5.22 µg/mL
"O=c1cc(-c2ccc(O)cc2)oc2c(C3OC(CO)C(O)C(O)C3O)c(O)c(C3OCC(O)C(O)C3O)c(O)c12 (centres unmarked) [compound 14, Vicenin-1]",IC50,"[1]; mean ± SD, n = 3, read-out: BSA-glycation IC50",256 ± 5.44 µM
same,IC50,"[2]; mean ± SD, n = 3",96.4 ± 2.11 µM
same,COX-2 inhibition,"COX-2; 31.25 μM, listed as T6, 31.25 µM",-4.26%
same,COX-2 inhibition,"COX-2; 62.5 μM, listed as T6, 62.5 µM",-25.49% and -4.46%
same,COX-2 inhibition,"COX-2; 125 μM, listed as T6, 125 µM",-10.40%
same,COX-2 inhibition,"COX-2; 500 μM, listed as T6, 500 µM",-29.71% and -20.21%
same,COX-2 inhibition,"COX-2; 1000 μM, listed as T6, 1000 µM",-42.43% and -38.19%
same,IC50,"DPPH· scavenging; mean ± SD, n = 3",> 5000 µM
same,FRAP EC1,[3]; [5],>5000 µM
